Reference: PMC8583966, “Proteasome Inhibitors and Their Pharmacokinetics, Pharmacodynamics, and Metabolism” (International Journal of Molecular Sciences, 2021)
Like-named read-outs stand apart in the source and are kept apart here. Values belong to the compound of their own block, whether it stands above or below them.

Key:
CYP450 isozyme 2C19 = conditions: human liver microsomes (~7 µg/mL); cited from earlier work
proteasome subunits = conditions: summary table; cited from earlier work
CYP450 isozyme 2D6 = conditions: human liver microsomes (~7 µg/mL); cited from earlier work
CYP450 isozyme 1A2 = conditions: human liver microsomes (~7 µg/mL); cited from earlier work
CYP450 isozyme 3A4 = conditions: human liver microsomes (~7 µg/mL); cited from earlier work
[1] = summary table; cited from earlier work
[2] = cited from earlier work
20S proteasome = conditions: cited from earlier work; for inhibition of 20S proteasome activity: patients, single agent, after 1-h treatment
[3] = summary table; cited from earlier work; remark: listed apart in the source
[4] = Bortezomib plasma pharmacokinetics in patients; assay type: in vivo, human; conditions: CYP IC50 vs Cmax at 1.3 mg/m2
Protocol: The relationship between plasma concentration and proteasome inhibition was assessed at 1, 6, and 24 h over a 24-hour period.

CYP450 isozyme 2C9 = conditions: human liver microsomes (~7 µg/mL); cited from earlier work
[5] = tested on: β5 subunit of the constitutive proteasome; conditions: patients, doses ≥15 mg/m2; cited from earlier work
proteasome CT-L activity = conditions: following the first dose for each week of dosing; cited from earlier work
β1 = tested on: β1; parameters: method as in PMID 20110052; conditions: whole blood, doses as high as 45 mg/m2; cited from earlier work
[6] = in vivo; cited from earlier work
[7] = in vivo; cited from earlier work; remark: listed apart in the source
[8] = human, in vivo, iv; cited from earlier work
[9] = tested on: LMP7 subunit of the immunoproteasome; conditions: patients, doses ≥15 mg/m2; cited from earlier work
β2 = tested on: β2; parameters: method as in PMID 20110052; conditions: whole blood, doses as high as 45 mg/m2; cited from earlier work
CYP1A2 = conditions: at higher concentrations, recombinant CYP microsomes; cited from earlier work
[10] = parameters: method as in PMID 30128949; conditions: AUC0–816h time-proportional pooled plasma, single 4.1-mg oral dose [14C]-ixazomib, four patients; cited from earlier work
CYP2B6 = conditions: at higher concentrations, recombinant CYP microsomes; cited from earlier work
[11] = tested on: trypsin-like activity of the 20S proteasome; conditions: relative to β5 and LMP7; cited from earlier work
[12] = patients, cited from earlier work
[13] = tested on: caspase-like activity of the 20S proteasome; conditions: relative to β5 and LMP7; cited from earlier work
CYP3A4 = conditions: at higher concentrations, recombinant CYP microsomes; cited from earlier work
proteasome [14] = tested on: proteasome; parameters: method as in PMID 30117017; conditions: whole blood, IV administration; cited from earlier work
[15] = PK of KZR-616 in two drug product formulations; assay type: in vivo; conditions: 10% (w/v) PS-80 vs 2% (w/v) trehalose formulation
Protocol: (§1) To further evaluate the role of epoxide hydrolase in the metabolism of KZR-616, two analogs were selected for PK and PD studies in cynomolgus monkey to compare with KZR-616. […] Following single subcutaneous (SC) administration to monkeys at 3 mg/kg of these 3 compounds AUC values were the highest with KZR-59240, followed by KZR-616 and KZR-59177. The PK of both parent and diol for each compound were consistent with the stability results in MLM in the absence of NADPH, in which the CYP enzymes were not activated (Table 3), and, as predicted, the diol derivatives were determined to be the major metabolites for all compounds. The PK and PD of KZR-616 was assessed using 2 different drug product formulations, one containing 10% (w/v) PS-80, and the other 2% (w/v) trehalose.

[16] = PK of KZR-616 and analogs after single SC dose in monkeys; conditions: cynomolgus monkey, in vivo, single SC dose 3 mg/kg
Protocol: as §1

[17] = KZR-616 and metabolites in human plasma of SLE patients; assay type: in vivo; conditions: KZR-616 75 mg
Protocol: Following repeat-dose SC administration, there was no apparent accumulation of immunoproteasome inhibition, although cumulative constitutive proteasome inhibition in whole blood was observed, likely due to the irreversible mechanism of KZR-616 inhibition and the inability of enucleated red blood cells (the major cellular source of constitutive proteasome) to produce new proteasomes. […] As in carfilzomib, and oprozomib, KZR-616 was not stable when incubated in HLMs in the absence of NADPH, indicating non-CYP enzymes were involved in its clearance. […] In pooled plasma samples from 4 patients with systemic lupus erythematous (SLE) receiving a KZR-616 dose of 75 mg, the diol was the major metabolite, and other metabolites from oxidation, hydrolysis + dehydrogenation, oxidation + dehydrogenation double oxidation were less than 1% of the total peak area of all components (Table 2).

LMP7 = tested on: LMP7; parameters: method as in PMID 30380863; conditions: mouse arthritis model, active dose; cited from earlier work
[18] = parameters: method as in PMID 34234005; conditions: absence of NADPH; cited from earlier work
[19] = healthy volunteers, SC; cited from earlier work
LMP2 = tested on: LMP2; parameters: method as in PMID 30380863; conditions: mouse arthritis model, active dose; cited from earlier work
[20] = parameters: method as in PMID 19348473; conditions: mice; cited from earlier work
[21] = parameters: method as in PMID 28428366; conditions: human hepatocytes, quantified with synthesized standards; cited from earlier work
[22] = parameters: method as in PMID 19348473; conditions: dogs; cited from earlier work
[23] = parameters: method as in PMID 19348473; conditions: rats; cited from earlier work
[24] = single agent, cited from earlier work
proteasome [25] = tested on: proteasome; parameters: method as in PMID 31142508; conditions: at MTD, 4 h post-dose; cited from earlier work
[26] = parameters: method as in PMID 28428366; conditions: pooled HLMs, cited from earlier work

CYP450 IC50 values higher than Cmax [4]: 60 fold
Structure (SMILES): CC(C)C[C@H](NC(=O)[C@H](Cc1ccccc1)NC(=O)c1cnccn1)B(O)O [Bortezomib]
IC50 (CYP450 isozyme 2C19): > 18 µM | Subunit Inhibition (proteasome subunits): ß5 and LMP7 | IC50 (CYP450 isozyme 2D6): > 18 µM | IC50 (CYP450 isozyme 1A2): > 18 µM | IC50 (CYP450 isozyme 3A4): > 18 µM | Absorption [1]: fast | Clearance [1]: fast | variation of plasma concentration ([2]; 1 h post-dose): ~ 800% | increase in bortezomib exposure ([2]; DDI, plus ketoconazole (CYP3A4 inhibitor), patients): 1.4 fold | variation of proteasome inhibition (20S proteasome; 1 h post-dose): ~ 70% | recovery of proteasome activity (20S proteasome; 12 h after administration): 50% | Time to Emax (median) (20S proteasome; IV administration): 5 min | mean maximum inhibition (Emax) (20S proteasome; IV administration): approximately 69% | Time to Emax (median) (20S proteasome; SC administration): 120 min | time to complete recovery of proteasome activity (20S proteasome; after administration): ≤ 72 h | time to full recovery of proteasome activity (20S proteasome; after dosing): 36 h | time by which recovery of proteasome activity was observed (20S proteasome; assessed at 1, 6 and 24 h): ≤ 24 h | inhibition of 20S proteasome activity (20S proteasome; 0.40 mg/m2): 36% | inhibition of 20S proteasome activity (20S proteasome; 1.04 mg/m2): 60% | inhibition of 20S proteasome activity (20S proteasome; 1.20 mg/m2): 65% | inhibition of 20S proteasome activity (20S proteasome; 1.38 mg/m2): 74% | Metabolic Pathwas [3]: Hydrolases, CYPs | IC50 (CYP450 isozyme 2C9): > 18 µM

Structure (SMILES): CC(C)C[C@H](NC(=O)[C@H](CCc1ccccc1)NC(=O)CN1CCOCC1)C(=O)N[C@@H](Cc1ccccc1)C(=O)N[C@@H](CC(C)C)C(=O)[C@@]1(C)CO1 [Carfilzomib]
average inhibition of β5 [5]: greater than 83% | time proteasome inhibition was maintained (proteasome CT-L activity): ≥ 48 h | Subunit Inhibition (proteasome subunits): ß5 and LMP7 | inhibition of β1 (β1): Less than 18% | dose excreted intact [6]: less than 1% | rates of peripheral neuropathy lower than with bortezomib [7]: > 60% | t1/2 [8]: < 0.5 h | average inhibition of LMP7 [9]: greater than 83% | inhibition of β2 (β2): Less than 18%

Structure (SMILES): CC(C)C[C@H](NC(=O)CNC(=O)c1cc(Cl)ccc1Cl)B(O)O [Ixazomib]
contribution to metabolism (CYP1A2): 26% | Subunit Inhibition (proteasome subunits): ß5 and LMP7 | % of plasma TRA [10]: 54.2% | contribution to metabolism (CYP2B6): 16% | less potency than for chymotrypsin-like activities [11]: 1000 fold | Tmax ([12]; oral): approximately 1 h | apparent clearance [12]: ~ 1.9 L/h | Absorption [1]: fast | Clearance [1]: fast | less potency than for chymotrypsin-like activities [13]: 10 fold | contribution to metabolism (CYP3A4): 42% | Metabolic Pathwas [3]: Hydrolases, CYPs | time to recovery of proteasome inhibition (proteasome [14]): ≤ 24 h

Structure (SMILES): COc1ccc([C@@H](O)[C@H](NC(=O)[C@H](C)NC(=O)CN2CCOCC2)C(=O)N[C@@H](CC2=CCCC2)C(=O)[C@@]2(C)CO2)cc1 [KZR-616, (2S,3R)-N-((S)-3-(Cyclopent-1-en-1-yl)-1-((R)-2-methyloxiran-2-yl)-1oxopropan-2-yl)-3-hydroxy-3-(4-methoxyphenyl)-2-((S)-2-(2morpholinoacetamido)propanamido)propenamide]
difference in Cmax between formulations [15]: 2 fold | total exposure (AUC) in both formulations [15]: equivalent | AUC(0-inf) [16]: 0.74 ± 0.188 µg·h/mL | Cmax [16]: 0.441 ± 0.114 µg/mL | Tmax [16]: 0.333 ± 0.136 h | half-life [16]: 1.05 ± 0.13 h | Subunit Inhibition (proteasome subunits): LMP2 and LMP7 | Absorption [1]: fast | Clearance [1]: fast | Component in Plasma as % of Total XIC (Extracted Ion Chromatogram) Area ([17]; Subject 110-004, SLE patient): 61.2% | Component in Plasma as % of Total XIC (Extracted Ion Chromatogram) Area ([17]; Subject 112-021, SLE patient): 49.0% | Component in Plasma as % of Total XIC (Extracted Ion Chromatogram) Area ([17]; Subject 113-002, SLE patient): 46.5% | Component in Plasma as % of Total XIC (Extracted Ion Chromatogram) Area ([17]; Subject 116-012, SLE patient): 51.8% | LMP7 inhibition (LMP7): complete | Metabolic Pathwas [3]: Microsomal epoxide hydrolase | stability in HLMs [18]: not stable | Tmax [19]: < 1 h | t1/2 [19]: < 4 h | LMP2 inhibition (LMP2): ~ 40%

Component in Plasma as % of Total XIC (Extracted Ion Chromatogram) Area ([17]; Subject 110-004, SLE patient): 33.8% | Component in Plasma as % of Total XIC (Extracted Ion Chromatogram) Area ([17]; Subject 112-021, SLE patient): 45.8% | Component in Plasma as % of Total XIC (Extracted Ion Chromatogram) Area ([17]; Subject 113-002, SLE patient): 47.9% | Component in Plasma as % of Total XIC (Extracted Ion Chromatogram) Area ([17]; Subject 116-012, SLE patient): 43.8%
Structure (SMILES): COc1ccc(C(O)C(NC(=O)C(C)NC(=O)CN2CCOCC2)C(=O)NC(CC2=CCCC2)C(=O)C(C)(O)CO)cc1 (stereo not shown) [KZR-59587]

Structure (SMILES): CC(C)C[C@@H](O)NC(=O)[C@H](Cc1ccccc1)NC(=O)c1cnccn1 [M1]
% of plasma TRA [10]: 18.9%

Structure (SMILES): CC(C)C[C@H](O)NC(=O)[C@H](Cc1ccccc1)NC(=O)c1cnccn1 [M2]
% of plasma TRA [10]: 7.91%

Structure (SMILES): NC(=O)[C@H](Cc1ccccc1)NC(=O)c1cnccn1 [M3]
% of plasma TRA [10]: 10.6%

Structure (SMILES): COC[C@H](NC(=O)c1cnc(C)s1)C(=O)N[C@@H](COC)C(=O)N[C@@H](Cc1ccccc1)C(=O)[C@@]1(C)CO1 [Oprozomib]
Subunit Inhibition (proteasome subunits): ß5 and LMP7 | oral bioavailability F% [20]: 17% | percent of total oprozomib recovered as component [21]: 20% | Absorption [1]: fast | Clearance [1]: fast | oral bioavailability F% [22]: 39% | oral bioavailability F% [23]: 21% | maximum tolerated dose (MTD) ([24]; first 2 days every 7 days of a 14-day cycle (2/7 schedule)): 300 mg/day | maximum tolerated dose (MTD) ([24]; first 5 days of a 14-day cycle (5/14 schedule)): 240 mg/day | Metabolic Pathwas [3]: Microsomal epoxide hydrolase peptidases, CYPs | proteasome inhibition (proteasome [25]): ≥ 70% | intrinsic clearance ([26]; absence of NADPH): 20.2 ± 1.8 µL/min/mg protein | intrinsic clearance ([26]; presence of NADPH): 70.7 ± 2.9 µL/min/mg protein | increase of intrinsic clearance by NADPH ([26]; presence vs absence of NADPH): 3.5 fold

Structure (SMILES): COC[C@H](NC(=O)c1cnc(C)s1)C(=O)N[C@@H](COC)C(=O)N[C@@H](Cc1ccccc1)C(=O)[C@](C)(O)CO [PR-176]
percent of total oprozomib recovered as component [21]: ~ 55%

Structure (SMILES): C[C@@](O)(CO)C(=O)[C@@H](N)Cc1ccccc1 [diol of PR-025]
percent of total oprozomib recovered as component [21]: ~ 7%
